Measurements from PubChem BioAssay (NCI).
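These data come from cells grown in 96-well plates and exposed to compound for 48 hours at five concentrations. At the GI50, growth is halved. At the TGI there is no net growth.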

Columns and labels:
Test in all cases: growth of human tumour cells (NCI), 48 h; in the data active = GI50 below about 0.43 µM; inactive = the rest
[1] = system: SK-MEL-28 melanoma
[2] = system: 786-0 renal
[3] = system: MOLT-4 leukemia
[4] = system: RXF 393 renal
[5] = system: MDA-MB-435
[6] = system: BT-549 breast
[7] = system: ACHN renal
[8] = system: PC-3 prostate
[9] = system: A549 NSCLC
[10] = system: SN12C renal
[11] = system: SF-295 CNS
[12] = system: HOP-62 NSCLC
[13] = system: T-47D breast
[14] = system: HOP-92 NSCLC
[15] = system: CCRF-CEM leukemia
[16] = system: LOX IMVI melanoma
[17] = system: OVCAR-4 ovarian
[18] = system: SW-620 colon
[19] = system: HL-60(TB) leukemia
[20] = system: SF-268 CNS
[21] = system: DU-145 prostate
[22] = system: OVCAR-3 ovarian
[23] = system: NCI-H460 lung
[24] = system: MDA-MB-231 breast
[25] = system: K-562 leukemia
[26] = system: KM12 colon
[27] = system: IGROV1 ovarian
[28] = system: SNB-19 CNS
[29] = system: U251 CNS
[30] = system: HS 578T breast
[31] = system: NCI-H23 lung
[32] = system: A498 renal
[33] = system: MCF7 breast
[34] = system: HT29 colon
[35] = system: UO-31 renal
[36] = system: OVCAR-8 ovarian
[37] = system: OVCAR-5 ovarian
[38] = system: TK-10 renal
[39] = system: CAKI-1 renal
[40] = system: SK-MEL-2 melanoma
[41] = system: HCT-116 colon
[42] = system: HCC-2998 colon
[43] = system: SF-539 CNS
[44] = system: NCI/ADR-RES ovarian
[45] = system: SNB-75 CNS
[46] = system: HCT-15 colon
[47] = system: NCI-H226 lung
[48] = system: SK-OV-3 ovarian
[49] = system: EKVX NSCLC
[50] = system: MALME-3M melanoma
[51] = system: SR leukemia
[52] = system: UACC-62 melanoma
[53] = system: COLO 205 colon
[54] = system: SK-MEL-5 melanoma
[55] = system: RPMI-8226 leukemia
[56] = system: UACC-257 melanoma
[57] = system: NCI-H522 lung
[58] = system: M14 melanoma

CCC(=C(c1ccc(OCCN(C)C)cc1)c1ccc(OCCN(C)C)cc1)c1ccc(Cl)cc1
6320 nM: TGI [9]
1120 nM: TGI [52]
6480 nM: TGI [39]
1460 nM: TGI [55]
6290 nM: TGI [28]
6960 nM: TGI [36]
6670 nM: TGI [21]
8080 nM: TGI [48]
4010 nM: TGI [14]
1220 nM: TGI [18]
8490 nM: TGI [40]
7490 nM: TGI [54]
1790 nM: TGI [15]
2410 nM: TGI [3]
8410 nM: TGI [47]
7530 nM: TGI [45]
4330 nM: TGI [7]
7560 nM: TGI [37]
4560 nM: TGI [8]
8380 nM: TGI [6]
1110 nM: TGI [34]
2670 nM: TGI [46]
2740 nM: TGI [22]
2290 nM: TGI [29]
7260 nM: TGI [31]
7750 nM: TGI [38]
4740 nM: TGI [51]
7950 nM: TGI [12]
888 nM: TGI [1]
1770 nM: TGI [25]
5600 nM: TGI [27]
6490 nM: TGI [11]
3300 nM: TGI [50]
inactive: GI50 [1] 462 nM | GI50 [2] 3700 nM | GI50 [3] 745 nM | GI50 [4] 897 nM | GI50 [5] 575 nM | GI50 [6] 4290 nM | GI50 [7] 1310 nM | GI50 [8] 1260 nM | GI50 [9] 2560 nM | GI50 [10] 3760 nM | GI50 [11] 3090 nM | GI50 [12] 3670 nM | GI50 [13] 3170 nM | GI50 [14] 736 nM | GI50 [15] 609 nM | GI50 [16] 430 nM | GI50 [17] 3390 nM | GI50 [18] 549 nM | GI50 [19] 522 nM | GI50 [20] 3540 nM | GI50 [21] 3110 nM | GI50 [22] 804 nM | GI50 [23] 2670 nM | GI50 [24] 2420 nM | GI50 [25] 541 nM | GI50 [26] 2540 nM | GI50 [27] 2170 nM | GI50 [28] 2840 nM | GI50 [29] 670 nM | GI50 [30] 3480 nM | GI50 [31] 3650 nM | GI50 [32] 3580 nM | GI50 [33] 522 nM | GI50 [34] 427 nM | GI50 [35] 3230 nM | GI50 [36] 3210 nM | GI50 [37] 3910 nM | GI50 [38] 4050 nM | GI50 [39] 3170 nM | GI50 [40] 4480 nM | GI50 [41] 2580 nM | GI50 [42] 2040 nM | GI50 [43] 2750 nM | GI50 [44] 3220 nM | GI50 [45] 3320 nM | GI50 [46] 770 nM | GI50 [47] 4120 nM | GI50 [48] 4260 nM | GI50 [49] 3850 nM | GI50 [50] 855 nM | GI50 [51] 659 nM | GI50 [52] 492 nM | GI50 [53] 1140 nM | GI50 [54] 3990 nM | GI50 [55] 598 nM | GI50 [56] 3700 nM | GI50 [57] 1960 nM
7390 nM: TGI [56]
5770 nM: TGI [57]
7360 nM: TGI [17]
6100 nM: TGI [43]
7670 nM: TGI [49]
1230 nM: TGI [19]
6240 nM: TGI [41]
4770 nM: TGI [53]
7520 nM: TGI [10]
7070 nM: TGI [32]
7790 nM: TGI [30]
6030 nM: TGI [23]
5750 nM: TGI [24]
7480 nM: TGI [20]
6600 nM: TGI [35]
1670 nM: TGI [33]
5730 nM: TGI [42]
4150 nM: TGI [4]
8030 nM: TGI [13]
848 nM: TGI [16]
6680 nM: TGI [44]
7720 nM: TGI [2]
1410 nM: TGI [5]
5670 nM: TGI [26]

Cc1cccc(/C=C/C(=O)Nc2ncc(Cc3cccc(C)c3)s2)c1
> 81100 nM: TGI [54]
active: GI50 [5] 303 nM | GI50 [11] 329 nM | GI50 [25] 117 nM | GI50 [26] 339 nM | GI50 [51] 179 nM | GI50 [52] 144 nM
2580 nM: TGI [34]
> 32500 nM: TGI [43]
5950 nM: TGI [4]
1890 nM: TGI [58]
2460 nM: TGI [11]
2080 nM: TGI [57]
> 75000 nM: TGI [26]
inactive: GI50 [1] 1930 nM | GI50 [2] 1190 nM | GI50 [3] 710 nM | GI50 [4] 910 nM | GI50 [6] 1290 nM | GI50 [7] 1060 nM | GI50 [8] 875 nM | GI50 [9] 1020 nM | GI50 [10] 1680 nM | GI50 [12] 633 nM | GI50 [13] 575 nM | GI50 [14] 1250 nM | GI50 [15] 884 nM | GI50 [16] 841 nM | GI50 [17] 1390 nM | GI50 [18] 1130 nM | GI50 [19] 579 nM | GI50 [20] 2540 nM | GI50 [21] 876 nM | GI50 [22] 1050 nM | GI50 [23] 545 nM | GI50 [24] 2920 nM | GI50 [27] 1670 nM | GI50 [28] 1400 nM | GI50 [29] 1110 nM | GI50 [58] 568 nM | GI50 [30] 1040 nM | GI50 [31] 6620 nM | GI50 [32] > 27700 nM | GI50 [33] 820 nM | GI50 [34] 739 nM | GI50 [35] 618 nM | GI50 [36] 1360 nM | GI50 [37] 1440 nM | GI50 [38] > 25600 nM | GI50 [39] 518 nM | GI50 [40] 627 nM | GI50 [41] 1100 nM | GI50 [42] 1680 nM | GI50 [43] 863 nM | GI50 [44] 869 nM | GI50 [45] 903 nM | GI50 [46] 585 nM | GI50 [47] 1280 nM | GI50 [48] 1670 nM | GI50 [49] 1220 nM | GI50 [50] 1300 nM | GI50 [53] 766 nM | GI50 [54] 1230 nM | GI50 [55] 1140 nM | GI50 [56] 1590 nM | GI50 [57] 599 nM
> 100000 nM: TGI [1] | TGI [2] | TGI [3] | TGI [6] | TGI [7] | TGI [8] | TGI [9] | TGI [10] | TGI [12] | TGI [13] | TGI [14] | TGI [15] | TGI [16] | TGI [17] | TGI [18] | TGI [20] | TGI [21] | TGI [23] | TGI [24] | TGI [25] | TGI [27] | TGI [28] | TGI [29] | TGI [30] | TGI [31] | TGI [32] | TGI [33] | TGI [35] | TGI [36] | TGI [37] | TGI [38] | TGI [39] | TGI [41] | TGI [42] | TGI [44] | TGI [46] | TGI [47] | TGI [48] | TGI [49] | TGI [50] | TGI [51] | TGI [52] | TGI [55] | TGI [56]
3000 nM: TGI [53]
> 20500 nM: TGI [45]
1970 nM: TGI [19]
8550 nM: TGI [22]
4750 nM: TGI [40]
1140 nM: TGI [5]
